Consider 67 compounds from US8916565B2, “Pyrrolopyrazine-spirocyclic piperidine amides as modulators of ion channels” (priority 2011, dated 2014).

pIC50: −log10 of the molar value. Some results are limits rather than exact numbers.

human NaV subtype, like NaV 1.7, sequence (Q15858 whole entry): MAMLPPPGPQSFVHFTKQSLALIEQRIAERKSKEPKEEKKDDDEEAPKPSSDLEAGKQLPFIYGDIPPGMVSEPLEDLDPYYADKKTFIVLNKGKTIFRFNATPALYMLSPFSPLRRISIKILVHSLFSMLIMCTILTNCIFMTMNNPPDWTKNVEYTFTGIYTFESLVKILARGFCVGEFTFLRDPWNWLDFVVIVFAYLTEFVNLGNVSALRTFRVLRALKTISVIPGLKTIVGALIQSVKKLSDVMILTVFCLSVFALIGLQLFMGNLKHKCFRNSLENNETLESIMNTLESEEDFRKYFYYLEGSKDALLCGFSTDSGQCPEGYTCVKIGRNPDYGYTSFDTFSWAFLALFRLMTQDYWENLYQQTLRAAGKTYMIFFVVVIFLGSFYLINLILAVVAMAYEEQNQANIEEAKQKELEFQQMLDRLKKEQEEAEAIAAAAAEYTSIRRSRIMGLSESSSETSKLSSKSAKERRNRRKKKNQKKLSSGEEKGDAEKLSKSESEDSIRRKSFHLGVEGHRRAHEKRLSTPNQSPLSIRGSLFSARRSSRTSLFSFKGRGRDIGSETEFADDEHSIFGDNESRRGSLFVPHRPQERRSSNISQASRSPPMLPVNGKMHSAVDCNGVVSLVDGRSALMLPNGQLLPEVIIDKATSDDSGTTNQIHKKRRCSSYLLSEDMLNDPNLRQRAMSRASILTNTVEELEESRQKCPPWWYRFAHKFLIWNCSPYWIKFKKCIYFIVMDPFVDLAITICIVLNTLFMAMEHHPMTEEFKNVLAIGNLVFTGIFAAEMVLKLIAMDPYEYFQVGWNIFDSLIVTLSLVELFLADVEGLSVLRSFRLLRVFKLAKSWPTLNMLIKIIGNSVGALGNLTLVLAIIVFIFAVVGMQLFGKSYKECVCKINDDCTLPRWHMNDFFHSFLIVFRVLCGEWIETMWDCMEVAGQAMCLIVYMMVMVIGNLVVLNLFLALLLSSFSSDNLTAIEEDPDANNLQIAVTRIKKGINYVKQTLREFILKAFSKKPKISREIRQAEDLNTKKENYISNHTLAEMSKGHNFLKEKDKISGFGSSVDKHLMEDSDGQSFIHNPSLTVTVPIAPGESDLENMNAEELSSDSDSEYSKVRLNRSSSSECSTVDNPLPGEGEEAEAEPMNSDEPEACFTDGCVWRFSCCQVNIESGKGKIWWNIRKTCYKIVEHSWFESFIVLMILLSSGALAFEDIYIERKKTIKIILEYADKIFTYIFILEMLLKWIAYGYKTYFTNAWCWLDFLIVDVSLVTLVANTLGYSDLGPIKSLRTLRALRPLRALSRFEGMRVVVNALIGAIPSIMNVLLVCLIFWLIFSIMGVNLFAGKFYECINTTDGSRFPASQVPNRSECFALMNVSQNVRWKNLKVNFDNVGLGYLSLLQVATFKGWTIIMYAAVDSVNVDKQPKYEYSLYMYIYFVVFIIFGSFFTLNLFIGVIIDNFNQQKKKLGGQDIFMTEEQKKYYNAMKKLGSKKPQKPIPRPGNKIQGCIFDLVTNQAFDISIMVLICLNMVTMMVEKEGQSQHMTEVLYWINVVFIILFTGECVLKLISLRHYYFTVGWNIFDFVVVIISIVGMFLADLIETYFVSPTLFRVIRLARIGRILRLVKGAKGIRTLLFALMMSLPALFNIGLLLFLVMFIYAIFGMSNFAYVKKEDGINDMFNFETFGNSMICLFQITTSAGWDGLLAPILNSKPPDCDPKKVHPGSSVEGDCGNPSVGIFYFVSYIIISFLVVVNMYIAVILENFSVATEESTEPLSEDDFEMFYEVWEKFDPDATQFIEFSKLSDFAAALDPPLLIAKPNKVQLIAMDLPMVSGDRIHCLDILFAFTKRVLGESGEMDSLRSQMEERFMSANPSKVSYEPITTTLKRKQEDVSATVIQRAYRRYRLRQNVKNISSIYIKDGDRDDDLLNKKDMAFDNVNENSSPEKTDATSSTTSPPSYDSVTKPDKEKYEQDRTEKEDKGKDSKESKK

This assay has as its target human NaV subtype, like NaV 1.7 (Homo sapiens, UniProt Q15858). The assay is described as follows: E-VIPR optical membrane potential assay with electrical stimulation. The class given is cell-based. To be noted: active against one or more sodium channels; Table 3 does not name the assay or NaV subtype; read-out: Binned Activity Data (IC50).
Regarding `CN1CCn2c(C(=O)C(F)(F)F)ccc2C12CCN(C(=O)c1cc(O)ccc1F)CC2` [Compound 417], the pIC50 was less than 5.30. The value for `COc1cc(C(=O)N2CCC3(CC2)c2c(Cl)cc(C(F)(F)F)n2CCN3C)ccc1COCC(F)(F)F` [Compound 687] was not below 5.70. In the case of `Cc1cc(C(=O)N2CCC3(CC2)c2ccc(C(=O)C(F)(F)F)n2CCN3C)ccc1-c1ccnn1C` [Compound 478], the pIC50 was less than 5.30.

For the compound `Cc1cc(C(=O)N2CCC3(CC2)c2ccc(C(F)(F)C(F)(F)F)n2CCN3C)ccc1OC(C)C` [Compound 211], the negative-log IC50 (pIC50) was not below 5.70. On to `COc1cc(C(=O)N2CCC3(CC2)c2ccc(C(F)(F)F)n2C[C@H](C)N3C)ccc1OC(C)C` [Compound 29], for which the negative logarithm of the IC50 (pIC50) was not below 5.70.

For `CN1CCn2c(C(F)(F)F)ccc2C12CCN(C(=O)c1ccc(S(=O)(=O)NC3CC3)cc1)CC2` [Compound 584], the negative-log IC50 (pIC50) is not below 5.70.

`CC(C)Oc1ccc(C(=O)N2CCC3(CC2)c2ccc(Cl)n2CCN3C)cc1C#N` [Compound 220]: the pIC50 was 5.30 to 5.70.

For the compound `Cc1cc(C(=O)N2CCC3(CC2)NCC(C)(C)n2c(C(F)(F)F)ccc23)ccc1OC(C)C` [Compound 280], the pIC50 is not below 5.70. On to `COc1c(F)cccc1C(=O)N1CCC2(CC1)c1ccc(C(=O)C(F)(F)F)n1C[C@H](C)N2C` [Compound 264], for which the pIC50 is not below 5.70. For `CN(C)c1ncccc1C(=O)N1CCC2(CC1)c1ccc(C(F)(F)F)n1CCN2C` [Compound 652], the negative logarithm of the IC50 (pIC50) was less than 5.30.

As for `CN1CCn2c(C(F)(F)F)ccc2C12CCN(C(=O)c1ccc(C(C)(C)O)cc1)CC2` [Compound 84], the pIC50 is not below 5.70. As for `CCNc1ncccc1C(=O)N1CCC2(CC1)c1ccc(C(F)(F)F)n1CCN2C` [Compound 465], the pIC50 was less than 5.30. The value for `CCOc1ccc(C(=O)N2CCC3(CC2)c2ccc(C(=O)C(F)(F)F)n2CCN3C)cc1C(F)(F)F` [Compound 64] was not below 5.70. As for `C=C(C)Oc1ccc(C(=O)N2CCC3(CC2)c2ccc(C(F)(F)F)n2CCN3C)cc1OC` [Compound 751], the pIC50 is not below 5.70. In the case of `CNS(=O)(=O)c1ccc(C(=O)N2CCC3(CC2)c2c(F)cc(C(F)(F)F)n2CCN3C)cc1` [Compound 415], the pIC50 is not below 5.70. The value for `CN1CCn2c(C(=O)C3(C)CC3)ccc2C12CCN(C(=O)c1ccc(COCCC(F)(F)F)cc1)CC2` [Compound 585] was not below 5.70; that for `Cc1cc(C(=O)N2CCC3(CC2)c2ccc(Cl)n2CCN3C)ccc1OCC(C)(C)O` [Compound 531] was not below 5.70. For the compound `CC(C)Oc1ccc(C(=O)N2CCC3(CC2)c2ccc(C(=O)C4CC4)n2CCN3C)cc1F` [Compound 744], the pIC50 was not below 5.70. Regarding `COc1c(C)cccc1C(=O)N1CCC2(CC1)c1ccc(C(=O)C(F)(F)F)n1C[C@H](C)N2C` [Compound 675], the pIC50 was not below 5.70.

Turning to `COc1ccc(C(=O)N2CCC3(CC2)c2ccc(C(=O)C(F)(F)F)n2C(C)CN3C)cc1Cl` (stereo not shown) [Compound 747], the negative logarithm of the IC50 (pIC50) was not below 5.70. The value for `CN1CC(C)(C)n2c(C(=O)C(F)(F)F)ccc2C12CCN(C(=O)c1ccc(C(C)(C)O)c(F)c1)CC2` [Compound 748] was less than 5.30. Consider `CC[C@H](C)Oc1ccc(C(=O)N2CCC3(CC2)c2ccc(C(F)(F)F)n2CCN3C)cc1OC` [Compound 525], for which the pIC50 is not below 5.70.

As to `COc1cc(C(=O)N2CCC3(CC2)c2ccc(C(=O)C(F)(F)F)n2CCN3C)ccc1COCC(F)(F)F` [Compound 17], the pIC50 was not below 5.70. For `Cc1cc(C(=O)N2CCC3(CC2)c2ccc(C(=O)c4ccccc4)n2CCN3C)ccc1O` [Compound 632], the pIC50 is not below 5.70. For the compound `Cc1cc(C(=O)N2CCC3(CC2)c2ccc(C(F)(F)F)n2CCN3CC#N)ccc1OC(C)C` [Compound 165], the pIC50 was not below 5.70.

Turning to `Cc1nc(C(=O)N2CCC3(CC2)c2cc(C(=O)C(F)(F)F)cn2C(C)(C)CN3C)ccc1OC(C)C` [Compound 178], the pIC50 was less than 5.30. `COc1cc(C(=O)N2CCC3(CC2)NCCn2c(C(F)(F)F)ccc23)ccc1O` [Compound 594]: the pIC50 is less than 5.30. For the compound `COc1ccc(C(=O)N2CCC3(CC2)NC(C)(C)Cn2c(C(C)=O)ccc23)cc1C(F)(F)F` [Compound 633], the pIC50 is less than 5.30.

Consider `CCOC(=O)N1CCn2c(C#N)ccc2C12CCN(C(=O)c1ccc(OC(C)C)c(Cl)c1)CC2` [Compound 296], for which the pIC50 was not below 5.70. The value for `CC(C)Oc1ccc(C(=O)N2CCC3(CC2)c2cc(C(=O)C(F)(F)F)cn2C(C)(C)CN3C)cc1Cl` [Compound 588] was less than 5.30. Take `Cc1cc(C(=O)N2CCC3(CC2)c2ccc(C(=O)C(F)(F)F)n2CCN3C)ccc1C(C)(C)O` [Compound 266]: the pIC50 was not below 5.70. The value for `CC(C)Oc1ccc(C(=O)N2CCC3(CC2)c2ccc(C(F)(F)C(F)(F)F)n2CCN3C)cc1CO` [Compound 461] was not below 5.70.

Turning to `CC(C)Oc1ccc(C(=O)N2CCC3(CC2)NC(C)(C)Cn2c(C(=O)C(F)(F)F)ccc23)c(F)c1` [Compound 404], the pIC50 is not below 5.70.

Take `CN1CCn2c(C(=O)C(C)(C)C)ccc2C12CCN(C(=O)c1ccc(C(C)(C)O)c(F)c1)CC2` [Compound 251]: the pIC50 was not below 5.70. For the compound `CN1CCn2c(C(=O)C(F)(F)F)ccc2C12CCN(C(=O)c1ccc(OS(=O)(=O)C(F)(F)F)cc1)CC2` [Compound 517], the pIC50 was not below 5.70.

Take `Cc1cc(C(=O)N2CCC3(CC2)c2ccc(C(=O)C(C)(C)C)n2CCN3C)ccc1S(C)(=O)=O` [Compound 682]: the pIC50 was less than 5.30. `CC(C)Oc1ccc(C(=O)N2CCC3(CC2)c2ccc(C(=O)C(C)(C)C)n2CCN3C)cc1F` [Compound 619]: the pIC50 is not below 5.70. Consider `Cc1cc(C(=O)N2CCC3(CC2)c2ccc(C(=O)C(F)(F)F)n2CCN3C)cc(C)c1O` [Compound 238], for which the pIC50 was not below 5.70.

As for `CCNc1cc(C)nc2c(C(=O)N3CCC4(CC3)c3ccc(C(F)(F)F)n3CCN4C)cnn12` [Compound 737], the pIC50 is not below 5.70.

As to `COc1nc(C(=O)N2CCC3(CC2)c2ccc(C(=O)C(F)(F)F)n2CCN3C)ccc1OC(C)C` [Compound 357], the pIC50 is not below 5.70.

Consider `Cc1cc(C(=O)N2CCC3(CC2)c2ccc(C#N)n2CCN3C)ccc1OC(C)C` [Compound 394], for which the pIC50 was 5.30 to 5.70. For the compound `COc1cc(C(=O)N2CCC3(CC2)NCC(=O)n2c(C(F)(F)F)ccc23)ccc1OC(C)C` [Compound 4], the pIC50 is less than 5.30.

Turning to `CC(C)Oc1ccc(C(=O)N2CCC3(CC2)NC(C)(C)Cn2c(C(=O)C(F)(F)F)ccc23)cc1Cl` [Compound 270], the pIC50 was not below 5.70. `COc1cc(C(=O)N2CCC3(CC2)c2ccc(CC(F)(F)F)n2CCN3C)ccc1OC(C)C` [Compound 547]: the negative-log IC50 (pIC50) is less than 5.30. With `CN1CCn2c(C(F)(F)F)ccc2C12CCN(C(=O)c1ccnc(N3CCCCC3)c1)CC2` [Compound 581], the pIC50 was 5.30 to 5.70.

On to `CCCCOc1ccc(C(=O)N2CCC3(CC2)c2ccc(Cl)n2CCN3C)cc1` [Compound 386], for which the pIC50 was not below 5.70.

As for `CCCOc1ccc(C(=O)N2CCC3(CC2)c2ccc(C(=O)C(F)(F)F)n2CCN3C)cc1` [Compound 127], the pIC50 was not below 5.70.

As to `COc1cc(C(=O)N2CCC3(CC2)NCCn2c(C(F)(F)F)ccc23)ccc1OC(C)C` [Compound 372], the pIC50 was not below 5.70. On to `CCCCc1ccc(C(=O)N2CCC3(CC2)c2ccc(C(C)=O)n2CCN3C)cc1` [Compound 189], for which the pIC50 was not below 5.70.

In the case of `CC(=O)c1ccc2n1CCN(C)C21CCN(C(=O)c2ccc(C(C)(C)C)cc2)CC1` [Compound 473], the pIC50 was less than 5.30.

`Cc1cc(C(=O)N2CCC3(CC2)c2ccc(C(F)(F)F)n2CCN3C2CC2)ccc1OCC(C)(C)O` [Compound 332]: the pIC50 was not below 5.70. Take `CC(C)CCOc1ccc(C(=O)N2CCC3(CC2)NC(C)(C)Cn2c(C(=O)C(F)(F)F)ccc23)cc1` [Compound 409]: the pIC50 was not below 5.70. The value for `COCCN1CCn2c(C(F)(F)F)ccc2C12CCN(C(=O)c1ccccc1OC(F)(F)F)CC2` [Compound 662] was not below 5.70. For the compound `CCCCOc1cc(C(=O)N2CCC3(CC2)c2ccc(C(=O)C(F)(F)F)n2CCN3C)ccc1OC` [Compound 115], the pIC50 was not below 5.70.

Take `Cc1cc(C(=O)N2CCC3(CC2)c2cccn2CCN3C)ccc1OC(C)C` [Compound 430]: the negative-log IC50 (pIC50) is less than 5.30. As to `Cc1cc(S(=O)(=O)C(C)C)ccc1C(=O)N1CCC2(CC1)c1ccc(C(=O)C(F)(F)F)n1CCN2C` [Compound 153], the pIC50 is less than 5.30. The value for `COc1ccc(C(=O)N2CCC3(CC2)c2cc(C(=O)C(F)(F)F)cn2C(C)(C)CN3C)c(F)c1` [Compound 565] was 5.30 to 5.70.

Take `C=C(C)c1ccc(C(=O)N2CCC3(CC2)c2ccc(C(F)(F)F)n2CCN3C)cc1C` [Compound 316]: the pIC50 is not below 5.70. In the case of `CC(C)c1cc(C(=O)N2CCC3(CC2)c2ccc(C(=O)C(F)(F)F)n2CCN3C)ccc1O` [Compound 50], the pIC50 is not below 5.70. Take `CC1(C)Cn2c(C(=O)C(F)(F)F)ccc2C2(CCN(C(=O)c3ccc(S(=O)(=O)C4CC4)cc3)CC2)N1` [Compound 197]: the pIC50 is not below 5.70. Regarding `CN1CCn2c(C(=O)C3(C)CC3)ccc2C12CCN(C(=O)c1ccc(C(C)(C)O)cc1)CC2` [Compound 267], the pIC50 was 5.30 to 5.70. As for `COc1cc(C(=O)N2CCC3(CC2)c2c(F)cc(C(F)(F)F)n2CCN3C)ccc1OC(F)F` [Compound 113], the pIC50 was not below 5.70. The value for `COc1ccc(C(=O)N2CCC3(CC2)c2ccc(C(=O)C(F)(F)F)n2C[C@@H](C)N3C)cc1C` [Compound 432] was 5.30 to 5.70. In the case of `COc1cc(C(=O)N2CCC3(CC2)c2ccc(C(F)(F)F)n2CCN3C=O)ccc1OC(C)C` [Compound 362], the negative-log IC50 (pIC50) was less than 5.30.

With `CCCCOc1ccc(C(=O)N2CCC3(CC2)NCCn2c(C(F)(F)F)ccc23)cc1OC` [Compound 181], the pIC50 was not below 5.70. Take `CNS(=O)(=O)c1ccc(C(=O)N2CCC3(CC2)c2ccc(C(F)(F)C(F)(F)F)n2CCN3C)cc1` [Compound 381]: the pIC50 was not below 5.70. In the case of `CN1CCn2c(Cl)ccc2C12CCN(C(=O)c1ccc(OCC3CC3)cc1)CC2` [Compound 147], the pIC50 is 5.30 to 5.70.
